PubChem BioAssay AID550 (SRMLSC, 2006)
Activity calls are given as the source filed them.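 The calls were made as follows: active = clearly stronger inhibition of the target decarboxylase than of the coupling enzymes tested in parallel without it; inactive = the rest.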

Molecular target: diphosphomevalonate decarboxylase (Streptococcus pneumoniae D39)
Assay: S. pneumoniae DPM-DC inhibitor potency, dose response, biochemical, PK/LDH-coupled NADH fluorescence, hexokinase coupling counter-screen (AID 550)
Details: purified DPM-DC

Compound | IC50 | outcome
CN(C)[C@@H]1C(=O)C(C(N)=O)=C(O)[C@@]2(O)C(=O)C3=C(O)c4c(O)cccc4[C@@](C)(O)[C@H]3[C@H](O)[C@@H]12 | inactive | –
CC(C)C(OC(=O)CN1C(=O)COc2ccccc21)C(=O)NC1CCCC1 (stereo not given) | – | inactive
CCOC(=O)COc1ccc2nsnc2c1Cl | – | inactive
CCCN1C(=O)C(NC(C)=O)c2cc(OC)ccc21 (stereo not given) | – | inactive
CCCCC(=O)Nc1ccc(C(N)=O)cc1 | – | inactive
Clc1c(-c2nnc3n2CCC3)sc2ccccc12 | – | inactive
CC1=C(C(=O)OCC2CCCO2)C(c2ccncc2)C2=C(CCCC2=O)N1 (stereo not given) | inactive | –
COc1cc(NC(=O)c2ccco2)c(OC)cc1NC(=O)CCC(=O)Nc1cc(C)ccc1C | – | inactive
Cc1c(NC(=O)C2CCN(S(=O)(=O)c3ccccc3)CC2)c(=O)n(-c2ccccc2)n1C | – | inactive
COC(=O)C1=C(C)OC(N)=C(C#N)C1c1cc(OC)c(OCC(N)=O)cc1Cl (stereo not given) | – | inactive
Cc1c(C(=O)NCC2CCCO2)sc2nc(-c3ccccc3)cn12 (stereo not given) | – | inactive
CC1(C)C(C=C(Cl)Cl)C1C(=O)N1CCN(c2ccccc2)CC1 (stereo not given) | – | inactive
COc1cccc(C(=O)OCn2nnc3ccccc3c2=O)c1 | – | inactive
CN(C)Cc1nc2ccccc2c(=O)n1Cc1nc(-c2cc3ccccc3o2)cs1 | – | inactive
N#Cc1c(C(F)(F)F)cc(-c2ccco2)nc1SCc1ccncc1 | – | inactive
CCC(=O)Nc1cccc(NC(=O)CSc2nnnn2Cc2ccccc2)c1 | – | inactive
CCOc1ccc(N(CC(=O)NC2CCCC(C)C2C)S(=O)(=O)c2c(C)noc2C)cc1 (stereo not given) | – | inactive
O=C1CCC(C(=O)N(Cc2ccco2)C2(C(=O)NC3CCCC3)CCCCC2)N1 (stereo not given) | – | inactive
O=C(c1ccccc1F)N(Cc1ccccc1)C1CCS(=O)(=O)C1 (stereo not given) | – | inactive
CCOC(=O)C1=C(C)NC(C)=C(C(=O)OCC)C1c1cc2ccc(C)cc2[nH]c1=O | 150 µM | –
CCCC(=O)Nc1ccc(N2CCN(C(=O)CCC)CC2)cc1 | – | inactive
Cc1ccc(C2C3=C(CC(C)(C)CC3=O)N(CCN3CCOCC3)C3=C2C(=O)CC(C)(C)C3)cc1 | – | inactive
Cc1nc(-c2cnn(-c3ccccc3)c2)c2cc(C)oc2n1 | – | inactive
CC(=NCc1ccco1)c1c(C)[nH]n(-c2nc3ccccc3s2)c1=O | – | inactive
O=C(CSc1ncnc2c1cnn2-c1ccccc1)Nc1ccc2c(c1)OCO2 | – | inactive
Cc1ccccc1CN1CCN(S(=O)(=O)c2ccc(F)cc2)CC1 | – | inactive
CC(C)(O)P(C)(=O)c1ccccc1 (stereo not given) | – | inactive
COc1cc(NC(=O)c2cccs2)c(C(=O)OCC(=O)NCc2ccco2)cc1OC | – | inactive

Compound | IC50 | outcome
COc1ccc(N2CCN(CCNS(=O)(=O)c3cccc4nsnc34)CC2)cc1 | – | inactive
CCOC(=O)c1cncc(NC(=O)c2ccccc2)c1 | – | inactive
O=C1C(Cl)=C(NCC2CCCO2)C(=O)N1Cc1ccccc1 (stereo not given) | – | inactive
COc1ccc(C(O)Cn2c(=N)n(CCCN(C)C)c3ccccc32)cc1 (stereo not given) | – | inactive
COCCn1nnnc1CN(Cc1cccnc1)Cc1cc2cc(OC)ccc2[nH]c1=O | – | inactive
COc1cccc(/C=N\n2c(C)nnc2C)c1OC | – | inactive
COc1ccc(C(c2nnnn2CC2CCCO2)N2CCN(c3ccccc3)CC2)cc1 (stereo not given) | – | inactive
COc1cc2c(cc1NC(=O)c1ccc3c(c1)OCO3)oc1ccccc12 | – | inactive
Cc1ccccc1Cc1c(C)nc2c(C(=O)N3CCN(Cc4ccc5c(c4)OCO5)CC3)cnn2c1C | – | inactive
COC(=O)c1cc2occc2n1CC(=O)Nc1ccc(OC)c(OC)c1OC | – | inactive
O=S(=O)(Nc1cccc2ncccc12)c1cccs1 | – | inactive
Cc1cc(-c2ccccc2)nc2cc(C(N)=O)nn12 | – | inactive
COc1ccc(C(=O)NCc2cn3c(C)csc3n2)cc1OC | – | inactive
COC(=O)CC1SC(=O)NC1=Nc1ccccc1 (stereo not given) | – | inactive
O=C(CSc1nnc2ccccn12)Nc1ccccc1C(=O)NC1CC1 | – | inactive
Cc1cccc(C(=O)Nc2cc(=O)n(C)c(=O)n2C)c1 | – | inactive
N#C/C(=C\C1CC=CCC1)c1nc2ccccc2[nH]1 (stereo not given) | – | inactive
COc1ccc(N2C(C)=CS/C2=C(/C#N)c2nnc(N3CCOCC3)n2-c2ccccc2)cc1 | – | inactive
CC(C)(CO)NC(=O)C(c1ccccc1)c1ccccc1 | – | inactive
CCc1nnc(NC(=O)CSc2nnc(COc3ccccc3)n2Cc2ccccc2)s1 | – | inactive
COCCOC(=O)c1c(C)oc2ccc(NS(=O)(=O)c3ccc(F)cc3)cc12 | – | inactive
CCCn1c(C)nc2c(c1=O)c1nc3ccccc3nc1n2-c1ccc2c(c1)OCCO2 | – | inactive
O=c1c(-c2ccccc2)c(O)c2cccc3c2n1CCC3 | – | inactive
CCOc1ccccc1OCC(=O)Nc1ccc(N2CCCCC2)cc1 | – | inactive
COc1cc(-c2nc3cnccc3n2C)cc(OC)c1OC | – | inactive
CN(C)C(=O)Nc1cnc2ccccc2c1 | – | inactive
O=C(CSc1nnnn1Cc1ccccc1)NCCc1ccccc1 | – | inactive

Molecular target: not listed separately
Assay: as above
Details: purified DPM-DC, measured here: coupling enzymes counter-screen (hexokinase)

Compound | IC50 [µM]
CN(C)[C@@H]1C(=O)C(C(N)=O)=C(O)[C@@]2(O)C(=O)C3=C(O)c4c(O)cccc4[C@@](C)(O)[C@H]3[C@H](O)[C@@H]12 | 125
CCn1nc(-c2ccccc2)nc2c(=O)n(C)c(=O)nc1-2 | 13.5
O=C(O)c1cccn2c(=O)c3ccccc3nc12 | 54
CC(/C=N/n1cnnc1)=C\c1ccco1 | 3440
O=c1c2ccccc2[se]n1-c1ccccc1 | 38.4
COC(=O)Sc1nnc(-c2ccc(Br)cc2)o1 | 19.6
CCN(CC)c1ccc(/C=N/n2c(=S)[nH]nc(C)c2=O)cc1 | 39.5
CCn1nc(-c2cccs2)nc2c(=O)n(C)c(=O)nc1-2 | 5.99
Nc1nc2c(s1)CCc1c-2cnn1-c1ccccc1 | 21
Clc1cccc(-c2ccc(/C=N/n3cnnc3)o2)c1 | 3720
